Experimental data reported in ChEMBL document CHEMBL5036347, “Design of the naphthyl-diarylpyrimidines as potent non-nucleoside reverse transcriptase inhibitors (NNRTIs) via structure-based extension into the entrance channel” (Eur J Med Chem, 2021).

How the values were obtained:
[1] = system: Human immunodeficiency virus 1; assay: Anti-HIV activity against HIV-1 IIIB infected in human MT4 cells assessed as reduction in virus-induced cytopathic effect incubated for 5 days by MTT assay; assay type: functional, organism-based; conditions: Human immunodeficiency virus 1, IIIB, MT4, 120 h
[2] = system: Human immunodeficiency virus 2; assay: Anti-HIV activity against HIV2 ROD infected in human MT4 cells assessed as reduction in virus-induced cytopathic effect incubated for 5 days by MTT assay; assay type: functional, organism-based; conditions: Human immunodeficiency virus 2, ROD, MT4, 120 h
[3] = Cytotoxicity against human MT4 cells assessed as reduction in cell viability incubated for 5 days by MTT assay; assay type: cell-based; conditions: human, MT4 cells; time 5 day
[4] = system: Human immunodeficiency virus 1; assay: Antiviral activity against HIV1 harboring reverse transcriptase L100I mutant infected in human MT4 cells assessed as protection against virus-induced cytopathic effect incubated for 5 days by MTT assay; assay type: functional, organism-based; conditions: Human immunodeficiency virus 1, MT4, 120 h
[5] = system: Human immunodeficiency virus 1; assay: Antiviral activity against HIV1 harboring reverse transcriptase K103N mutant infected in human MT4 cells assessed as protection against virus-induced cytopathic effect incubated for 5 days by MTT assay; assay type: functional, organism-based; conditions: Human immunodeficiency virus 1, MT4, 120 h
[6] = system: Human immunodeficiency virus 1; assay: Antiviral activity against HIV1 harboring reverse transcriptase Y181C mutant infected in human MT4 cells assessed as protection against virus-induced cytopathic effect incubated for 5 days by MTT assay; assay type: functional, organism-based; conditions: Human immunodeficiency virus 1, MT4, 120 h
[7] = system: Human immunodeficiency virus 1; assay: Antiviral activity against HIV1 harboring reverse transcriptase Y188L mutant infected in human MT4 cells assessed as protection against virus-induced cytopathic effect incubated for 5 days by MTT assay; assay type: functional, organism-based; conditions: Human immunodeficiency virus 1, MT4, 120 h
[8] = system: Human immunodeficiency virus 1; assay: Antiviral activity against HIV1 harboring reverse transcriptase E138K mutant infected in human MT4 cells assessed as protection against virus-induced cytopathic effect incubated for 5 days by MTT assay; assay type: functional, organism-based; conditions: Human immunodeficiency virus 1, MT4, 120 h
[9] = system: Human immunodeficiency virus 1; assay: Antiviral activity against HIV1 harboring reverse transcriptase F227L/V106A mutant infected in human MT4 cells assessed as protection against virus-induced cytopathic effect incubated for 5 days by MTT assay; assay type: functional, organism-based; conditions: Human immunodeficiency virus 1, MT4, 120 h
[10] = Resistance fold, ratio of EC50 for HIV1 harboring reverse transcriptase Y181C mutant […] to EC50 for wild type HIV1 […]; assay type: functional
[11] = Resistance fold, ratio of EC50 for HIV1 harboring reverse transcriptase L100I mutant […] to EC50 for wild type HIV1 […]; assay type: functional
[12] = Resistance fold, ratio of EC50 for HIV1 harboring reverse transcriptase K103N mutant […] to EC50 for wild type HIV1 […]; assay type: functional
[13] = system: Human immunodeficiency virus 1; assay: Antiviral activity against HIV1 harboring reverse transcriptase K103N/Y181C double mutant infected in human MT4 cells assessed as protection against virus-induced cytopathic effect incubated for 5 days by MTT assay; assay type: functional, organism-based; conditions: Human immunodeficiency virus 1, MT4, 120 h
[14] = Selectivity index, ratio of CC50 for cytotoxicity against human MT4 cells to EC50 of Anti-HIV activity against HIV-1 IIIB infected in human MT4; assay type: toxicity, cell-based; conditions: read-out: Selectivity Index
[15] = Resistance fold, ratio of EC50 for HIV1 harboring reverse transcriptase Y188L mutant […] to EC50 for wild type HIV1 […]; assay type: functional
[16] = Resistance fold, ratio of EC50 for HIV1 harboring reverse transcriptase E138K mutant […] to EC50 for wild type HIV1 […]; assay type: functional
[17] = Resistance fold, ratio of EC50 for HIV1 harboring reverse transcriptase F227L/V106A double mutant […] to EC50 for wild type HIV1 […]; assay type: functional
[18] = Resistance fold, ratio of EC50 for HIV1 harboring reverse transcriptase K103N/Y181C double mutant […] to EC50 for wild type HIV1 […]; assay type: functional
[19] = biological target: Human immunodeficiency virus type 1 reverse transcriptase (Human immunodeficiency virus 1, UniProt Q72547); assay: Inhibition of wild type HIV1 reverse transcriptase using oligo(dT)16 as primer measured after 40 mins by picogreen-dye based spectrofluorimetric analysis

| Compound | EC50 [1] | EC50 [2] | CC50 at 120 h [3] | EC50 [4] | EC50 [5] | EC50 [6] | EC50 [7] | EC50 [8] | EC50 [9] | Ratio EC50 [10] | Ratio EC50 [11] | Ratio EC50 [12] | EC50 [13] | selectivity ratio [14] | Ratio EC50 [15] | Ratio EC50 [16] | Ratio EC50 [17] | Ratio EC50 [18] | IC50 [19] | also measured |
| --- | --- | --- | --- | --- | --- | --- | --- | --- | --- | --- | --- | --- | --- | --- | --- | --- | --- | --- | --- | --- |
| CNc1cc(Oc2c(OC)cc3cc(C#N)ccc3c2OC)nc(Nc2ccc(C#N)cc2)n1 | 0.039 µM | 52.1 µM | 239 µM | 0.51 µM | 0.046 µM | 0.31 µM | 2.2 µM | 0.25 µM | 10.6 µM | 8 | 13 | 1 | 1.44 µM | 4080 | 56 | 6 | 271 | 37 | 0.24 µM |  |
| COc1cc2cc(C#N)ccc2c(OC)c1Oc1cc(NC2CC2)nc(Nc2ccc(C#N)cc2)n1 | 0.02 µM | > 1000 µM | > 125 µM | 0.59 µM | 0.038 µM | 0.19 µM |  | 0.061 µM | 9.59 µM | 9 | 29 | 2 | 1.28 µM | > 12700 | 45 | 3 | 468 | 63 | 0.08 µM | IC50 [7]: 0.91 µM |
| COc1cc2cc(C#N)ccc2c(OC)c1Oc1cc(NC2CCCC2)nc(Nc2ccc(C#N)cc2)n1 |  | > 1000 µM | > 125 µM |  | 0.055 µM | 0.53 µM | 7.53 µM | 0.23 µM | 131 µM | 11 | 77 | 1 | 6.6 µM | > 5170 | 158 | 5 | 2742 | 138 | 0.21 µM | IC50 [1]: 0.048 µM; IC50 [4]: 3.69 µM |
| COc1cc2cc(C#N)ccc2c(OC)c1Oc1cc(NCC(O)CO)nc(Nc2ccc(C#N)cc2)n1 (configuration not stated) | 0.1 µM | > 1000 µM | 29.5 µM | 1.04 µM | 0.093 µM | 0.73 µM | 1.26 µM | 0.28 µM | 3.11 µM | 7 | 17 | 1 | 0.93 µM | 293 | 13 | 3 | 31 | 9 | 0.08 µM |  |
| COc1cc2cc(C#N)ccc2c(OC)c1Oc1cc(NCCCCO)nc(Nc2ccc(C#N)cc2)n1 | 0.018 µM | 4.93 µM | 39.1 µM | 0.3 µM | 0.02 µM | 0.19 µM | 0.74 µM | 0.047 µM | 2.81 µM | 11 | 17 | 1 | 0.55 µM | 2190 | 41 | 3 | 158 | 31 | 0.08 µM |  |
| COc1cc2cc(C#N)ccc2c(OC)c1Oc1cc(NCC2CCOC2)nc(Nc2ccc(C#N)cc2)n1 (configuration not stated) | 0.019 µM | > 1000 µM | > 125 µM | 0.37 µM | 0.016 µM | 0.17 µM | 0.67 µM | 0.047 µM | 7.78 µM | 9 | 22 | 1 | 0.68 µM | > 12500 | 35 | 2 | 410 | 36 | 0.06 µM |  |
| COc1cc2cc(C#N)ccc2c(OC)c1Oc1cc(NCCC2=CCCCC2)nc(Nc2ccc(C#N)cc2)n1 | 0.33 µM | > 1000 µM | > 125 µM | 16.6 µM | 0.18 µM | 4.65 µM | 148 µM | 0.53 µM | 164 µM | 11 | 50 | 1 | 30 µM | > 688 | 445 | 5 | 494 | 90 | 0.28 µM |  |
| CCCC(C)Nc1cc(Oc2c(OC)cc3cc(C#N)ccc3c2OC)nc(Nc2ccc(C#N)cc2)n1 (configuration not stated) | 0.078 µM | > 1000 µM | > 125 µM | 2.17 µM | 0.064 µM | 0.66 µM | 10.9 µM | 0.25 µM | > 1000 µM | 8 | 28 | 1 | 8.77 µM | > 3140 | 139 | 3 | >12771 | 112 | 0.4 µM |  |
| COc1cc2cc(C#N)ccc2c(OC)c1Oc1cc(NCC(C)C)nc(Nc2ccc(C#N)cc2)n1 | 0.035 µM | > 1000 µM | > 125 µM | 127 µM | 0.11 µM | 43.6 µM | 13.3 µM | 0.13 µM | > 1000 µM | 1253 | 3646 | 3 | > 1000 µM | > 7250 | 383 | 4 | >28736 | >28736 | 0.25 µM |  |
| COc1cc2cc(C#N)ccc2c(OC)c1Oc1cc(NCC(C)(C)C)nc(Nc2ccc(C#N)cc2)n1 | 0.085 µM | > 1000 µM | > 125 µM | 8.79 µM | 0.14 µM | 2.38 µM | 112 µM | 0.31 µM | > 1000 µM | 28 | 103 | 2 | 1000 µM | > 2880 | 1313 | 4 | >11723 | >11723 | 0.51 µM |  |
| COc1cc2cc(C#N)ccc2c(OC)c1Oc1cc(NCCCOC(C)C)nc(Nc2ccc(C#N)cc2)n1 | 0.043 µM | > 1000 µM | > 125 µM | 1.23 µM | 0.033 µM | 0.55 µM | 2.51 µM | 0.057 µM | > 1000 µM | 13 | 29 | 3 | 2.07 µM | > 5380 | 58 | 1 | >23202 | 48 | 0.32 µM |  |
| CCCNc1cc(Oc2c(OC)cc3cc(C#N)ccc3c2OC)nc(Nc2ccc(C#N)cc2)n1 | 0.017 µM | > 1000 µM | > 125 µM | 0.47 µM | 0.016 µM | 0.18 µM | 1.15 µM | 0.046 µM | 65.1 µM | 11 | 28 | 1 | 1.27 µM | > 15700 | 68 | 3 | 3827 | 75 | 0.11 µM |  |
| COc1cc2cc(C#N)ccc2c(OC)c1Oc1cc(NCC2CC2)nc(Nc2ccc(C#N)cc2)n1 | 0.025 µM | 213 µM | > 125 µM | 0.96 µM | 0.031 µM |  | 1.42 µM | 0.059 µM | 74.4 µM | 9 | 39 | 1 | 1.37 µM | > 10500 | 58 | 5 | 3026 | 56 | 0.09 µM | IC50 [6]: 0.21 µM |
